Laboratory results from PubChem BioAssay (NCI).
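In this assay, cells in 96-well plates receive the compound at five concentrations for 48 hours. Endpoints are linearly interpolated between the surrounding concentrations. The concentration for 50% growth inhibition is given as GI50. TGI: total growth inhibition.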

Legend:
Assay in all cases: NCI tumour cell line growth inhibition, 48 h
786-0 renal = tested on: 786-0 renal
A498 renal = tested on: A498 renal
A549 NSCLC = tested on: A549 NSCLC
ACHN renal = tested on: ACHN renal
BT-549 breast = tested on: BT-549 breast
CAKI-1 renal = tested on: CAKI-1 renal
CCRF-CEM leukemia = tested on: CCRF-CEM leukemia
COLO 205 colon = tested on: COLO 205 colon
DU-145 prostate = tested on: DU-145 prostate
EKVX NSCLC = tested on: EKVX NSCLC
HCC-2998 colon = tested on: HCC-2998 colon
HCT-116 colon = tested on: HCT-116 colon
HCT-15 colon = tested on: HCT-15 colon
HL-60(TB) leukemia = tested on: HL-60(TB) leukemia
HOP-62 NSCLC = tested on: HOP-62 NSCLC
HOP-92 NSCLC = tested on: HOP-92 NSCLC
HS 578T breast = tested on: HS 578T breast
HT29 colon = tested on: HT29 colon
IGROV1 ovarian = tested on: IGROV1 ovarian
K-562 leukemia = tested on: K-562 leukemia
KM12 colon = tested on: KM12 colon
M14 melanoma = tested on: M14 melanoma
MALME-3M melanoma = tested on: MALME-3M melanoma
MCF7 breast = tested on: MCF7 breast
MDA-MB-231 breast = tested on: MDA-MB-231 breast
MDA-MB-435 = tested on: MDA-MB-435
MDA-MB-468 breast = tested on: MDA-MB-468 breast
MOLT-4 leukemia = tested on: MOLT-4 leukemia
NCI-H226 lung = tested on: NCI-H226 lung
NCI-H23 lung = tested on: NCI-H23 lung
NCI-H460 lung = tested on: NCI-H460 lung
NCI-H522 lung = tested on: NCI-H522 lung
NCI/ADR-RES ovarian = tested on: NCI/ADR-RES ovarian
OVCAR-3 ovarian = tested on: OVCAR-3 ovarian
OVCAR-4 ovarian = tested on: OVCAR-4 ovarian
OVCAR-5 ovarian = tested on: OVCAR-5 ovarian
OVCAR-8 ovarian = tested on: OVCAR-8 ovarian
PC-3 prostate = tested on: PC-3 prostate
RPMI-8226 leukemia = tested on: RPMI-8226 leukemia
RXF 393 renal = tested on: RXF 393 renal
SF-268 CNS = tested on: SF-268 CNS
SF-295 CNS = tested on: SF-295 CNS
SF-539 CNS = tested on: SF-539 CNS
SK-MEL-2 melanoma = tested on: SK-MEL-2 melanoma
SK-MEL-28 melanoma = tested on: SK-MEL-28 melanoma
SK-MEL-5 melanoma = tested on: SK-MEL-5 melanoma
SK-OV-3 ovarian = tested on: SK-OV-3 ovarian
SN12C renal = tested on: SN12C renal
SNB-19 CNS = tested on: SNB-19 CNS
SNB-75 CNS = tested on: SNB-75 CNS
SR leukemia = tested on: SR leukemia
SW-620 colon = tested on: SW-620 colon
T-47D breast = tested on: T-47D breast
TK-10 renal = tested on: TK-10 renal
U251 CNS = tested on: U251 CNS
UACC-257 melanoma = tested on: UACC-257 melanoma
UACC-62 melanoma = tested on: UACC-62 melanoma
UO-31 renal = tested on: UO-31 renal

## COc1ccc2c(c1)c(-c1cc(N)n3nc(-c4cn(C)c5ccccc45)cc3n1)cn2C
786-0 renal
  GI50: 1550 nM
  TGI: 2970 nM
A498 renal
  GI50: 1760 nM
  TGI: 3270 nM
A549 NSCLC
  GI50: 1810 nM
  TGI: 3510 nM
ACHN renal
  GI50: 1650 nM
  TGI: 3020 nM
BT-549 breast
  GI50: 1870 nM
  TGI: 3570 nM
CAKI-1 renal
  GI50: 1710 nM
  TGI: 3140 nM
CCRF-CEM leukemia
  GI50: 864 nM
  TGI: 5380 nM
COLO 205 colon
  GI50: 1920 nM
  TGI: 3670 nM
DU-145 prostate
  GI50: 2050 nM
  TGI: 4010 nM
EKVX NSCLC
  GI50: 1460 nM
  TGI: 3300 nM
HCC-2998 colon
  GI50: 2090 nM
  TGI: 3650 nM
HCT-116 colon
  GI50: 1160 nM
  TGI: 2420 nM
HCT-15 colon
  GI50: 1040 nM
  TGI: 2680 nM
HL-60(TB) leukemia
  GI50: 1400 nM
  TGI: 3940 nM
HOP-62 NSCLC
  GI50: 1730 nM
  TGI: 3350 nM
HOP-92 NSCLC
  GI50: 1760 nM
  TGI: 3410 nM
HS 578T breast
  GI50: 2180 nM
  TGI: 4770 nM
HT29 colon
  GI50: 1860 nM
  TGI: 3380 nM
IGROV1 ovarian
  GI50: 1730 nM
  TGI: 3250 nM
K-562 leukemia
  GI50: 401 nM
  TGI: 4500 nM
KM12 colon
  GI50: 2100 nM
  TGI: 4480 nM
M14 melanoma
  GI50: 1850 nM
  TGI: 3590 nM
MALME-3M melanoma
  GI50: 1700 nM
  TGI: 3090 nM
MCF7 breast
  GI50: 934 nM
  TGI: 2520 nM
MDA-MB-231 breast
  GI50: 1820 nM
  TGI: 3270 nM
MDA-MB-435
  GI50: 1760 nM
  TGI: 3210 nM
MDA-MB-468 breast
  GI50: 1670 nM
  TGI: 3310 nM
MOLT-4 leukemia
  GI50: 1690 nM
  TGI: 5410 nM
NCI-H226 lung
  GI50: 2040 nM
  TGI: 4930 nM
NCI-H23 lung
  GI50: 1970 nM
  TGI: 4090 nM
NCI-H460 lung
  GI50: 1900 nM
  TGI: 3600 nM
NCI-H522 lung
  GI50: 1650 nM
  TGI: 3150 nM
NCI/ADR-RES ovarian
  GI50: 2030 nM
  TGI: 4180 nM
OVCAR-3 ovarian
  GI50: 1940 nM
  TGI: 3680 nM
OVCAR-4 ovarian
  GI50: 1820 nM
  TGI: 3280 nM
OVCAR-5 ovarian
  GI50: 1950 nM
  TGI: 3850 nM
OVCAR-8 ovarian
  GI50: 1880 nM
  TGI: 3530 nM
PC-3 prostate
  GI50: 1800 nM
  TGI: 3690 nM
RPMI-8226 leukemia
  GI50: 2080 nM
  TGI: 6070 nM
RXF 393 renal
  GI50: 1850 nM
  TGI: 3410 nM
SF-268 CNS
  GI50: 1970 nM
  TGI: 4080 nM
SF-295 CNS
  GI50: 1780 nM
  TGI: 3430 nM
SF-539 CNS
  GI50: 1700 nM
  TGI: 3190 nM
SK-MEL-2 melanoma
  GI50: 1700 nM
  TGI: 3230 nM
SK-MEL-28 melanoma
  GI50: 1800 nM
  TGI: 3320 nM
SK-MEL-5 melanoma
  GI50: 1810 nM
  TGI: 3230 nM
SK-OV-3 ovarian
  GI50: 1920 nM
  TGI: 3510 nM
SN12C renal
  GI50: 1660 nM
  TGI: 3050 nM
SNB-19 CNS
  GI50: 2180 nM
  TGI: 5000 nM
SNB-75 CNS
  GI50: 1430 nM
  TGI: 2800 nM
SR leukemia
  GI50: 288 nM
  TGI: 1130 nM
SW-620 colon
  GI50: 1800 nM
  TGI: 3600 nM
T-47D breast
  GI50: 1940 nM
  TGI: 4150 nM
TK-10 renal
  GI50: 1910 nM
  TGI: 3360 nM
U251 CNS
  GI50: 1840 nM
  TGI: 3440 nM
UACC-257 melanoma
  GI50: 1770 nM
  TGI: 3260 nM
UACC-62 melanoma
  GI50: 1730 nM
  TGI: 3140 nM
UO-31 renal
  GI50: 1590 nM
  TGI: 2980 nM
